Test results published in patent US20090068290A1, “BIFEPRUNOX DOSES FOR TREATING SCHIZOPHRENIA” (priority 2006, published 2009).

Experiments:
[1] = system: adult subjects with schizophrenia; experiment: PANSS total score, Clinical Study One (6-week, risperidone-referenced); assay type: in vivo, human; details: for Change from Baseline in PANSS Total Score, Median / Change from Baseline in PANSS Total Score, Mean (S.D.): Risperidone 6 mg, ITT
Procedure: There were five treatment groups in this study. […] Study medication was administered once daily. After Baseline measurements were performed, the titration phase was begun. Bifeprunox treated subjects were titrated up to 5 mg, 10 mg or 20 mg according to a standardized titration schedule (Day 1: 0.125 mg, Day 2: 0.25 mg, Day 3: 0.5 mg, Day 4: 1.0 mg, Day 5: 2.0 mg, Day 6: 5.0 mg, Day 7: 10.0 mg, Day 8: 20 mg). When the assigned dose was reached, subjects were maintained at that dose for the remainder of the six-week treatment period.
Test Product. Dose and Mode of Administration: Bifeprunox tablets, total daily dose 0.125 mg to 20 mg administered orally using a once daily dosing regimen.
The change in the Positive and Negative Symptom Scale (PANSS) total score, from baseline to endpoint, was the primary outcome measure. Secondary efficacy measures included: PANSS positive, PANSS negative, PANSS general psychopathology (GPP) score, PANSS-derived Brief Psychiatric Rating Scale (BPRS) score, Clinical Global Impressions-Severity of Illness (CGI-S), CGI-Improvement (CGI-I) scores, and responder rates. Safety and tolerability evaluations included extrapyramidal symptoms (EPS), weight gain, lipid profile, and serum prolactin.

[2] = system: adult subjects with schizophrenia; experiment: PANSS negative symptom subscale score, Clinical Study Two; assay type: in vivo, human; details: Risperidone 6 mg, LOCF, ITT
Procedure: (§1) Rating scale assessments were performed weekly, except for week 5, to measure the change from baseline to endpoint of the PANSS total score. Other assessments included: PANSS positive symptom subscale score, PANSS negative symptom subscale score, PANSS general pschopathology subscale score, BPRS total score, BPRS psychosis score, the CGI-S score, the CGI-I score, responder rates based on the PANSS total score, and the Calgary Depression Scale for Schizophrenia (CDSS). […]
(§2) Subjects who completed this study had the option to continue in the long-term. […] Risperidone-treated subjects were titrated from 2 mg to 6 mg daily over a three-day period and were subsequently maintained at 6 mg/day for the remainder of the treatment period. […] Blood samples were also obtained at Screening/Baseline, Week 3, and Week 6 for clinical laboratory assessments.

[3] = system: adult subjects with schizophrenia; experiment: Calgary Depression Scale for Schizophrenia (CDSS), Clinical Study Two; assay type: in vivo, human; details: LOCF; for Change from Baseline in CDSS Total Score, Mean (SD) / Change from Baseline in CDSS Total Score, Median: 6 mg
Procedure: as §1, §2

[4] = Pooled metabolic analysis, 6-week studies: body weight; details: 6-week studies
Text: OBJECTIVE: To examine the metabolic effects of bifeprunox in patients with acute and stable schizophrenia.
METHODS: Metabolic data was compiled from one 6-month and four 6-week studies (i.e., a treatment period) of bifeprunox in patients with stable and acute schizophrenia, respectively. In the 6-month study, patients received bifeprunox (n=331) or placebo (PBO) (n=166). […] Metabolic evaluations included body weight, body mass index (BMI), plasma glucose and lipid profiles. Fasting glucose and lipid values were assessed in one 6-week study and in the 6-month study. Triglyceride:HDL ratio (TG:HDL) was calculated as a marker of insulin resistance. No statistical analyses were performed; only descriptive statistics are presented.

Cc1nc2n(c(=O)c1CCN1CCC(c3noc4cc(F)ccc34)CC1)CCCC2 [Risperidone, risperidone, reference compound]
Change from Baseline in PANSS Total Score, Median ([1]; Endpoint LOCF): −14 | Change from Baseline in PANSS Total Score, Mean (S.D.) ([1]; Week 1, LOCF): −8.2 (11.1) | Change from Baseline in PANSS Total Score, Median ([1]; Week 1, LOCF): −7 | Change from Baseline in PANSS Total Score, Mean (S.D.) ([1]; Week 2, LOCF): −13.1 (13.9) | Change from Baseline in PANSS Total Score, Median ([1]; Week 2, LOCF): −12 | Change from Baseline in PANSS Total Score, Mean (S.D.) ([1]; Week 3, LOCF): −15.3 (14.1) | Change from Baseline in PANSS Total Score, Median ([1]; Week 3, LOCF): −13 | Change from Baseline in PANSS Total Score, Mean (S.D.) ([1]; Week 4, LOCF): −14.4 (14.5) | Change from Baseline in PANSS Total Score, Median ([1]; Week 4, LOCF): −13 | all efficacy measures at endpoint compared to placebo ([1]; risperidone 6 mg (Example 4)): statistically significant at endpoint compared to placebo for all efficacy measures | separation of active reference from placebo ([1]; risperidone 6 mg, 6 weeks): showed clear separation from the placebo group | Change from Baseline in PANSS Negative Symptom Subscale Score, Mean (SD) ([2]; Week 1): −1.5 (3.0) | Change from Baseline in PANSS Negative Symptom Subscale Score, Median ([2]; Week 1): −2 | Change from Baseline in PANSS Negative Symptom Subscale Score, Mean (SD) ([2]; Week 2): −2.9 (4.3) | Change from Baseline in PANSS Negative Symptom Subscale Score, Median ([2]; Week 2): −3 | Change from Baseline in PANSS Negative Symptom Subscale Score, Mean (SD) ([2]; Week 3): −3.3 (4.9) | Change from Baseline in PANSS Negative Symptom Subscale Score, Median ([2]; Week 3): −3 | Change from Baseline in PANSS Negative Symptom Subscale Score, Mean (SD) ([2]; Week 4): −3.8 (5.5) | Change from Baseline in PANSS Negative Symptom Subscale Score, Median ([2]; Week 4): −4 | Change from Baseline in PANSS Negative Symptom Subscale Score, Mean (SD) ([2]; Week 6/Endpoint): −3.8 (5.5) | Change from Baseline in PANSS Negative Symptom Subscale Score, Median ([2]; Week 6/Endpoint): −3 | Change from Baseline in CDSS Total Score, Mean (SD) ([3]; Week 1): −0.62 (2.42) | Change from Baseline in CDSS Total Score, Median ([3]; Week 1): 0.0 | Change from Baseline in CDSS Total Score, Mean (SD) ([3]; Week 2): −0.74 (2.71) | Change from Baseline in CDSS Total Score, Median ([3]; Week 2): 0.0 | Change from Baseline in CDSS Total Score, Mean (SD) ([3]; Week 3): −0.93 (3.41) | Change from Baseline in CDSS Total Score, Median ([3]; Week 3): 0.0 | Change from Baseline in CDSS Total Score, Mean (SD) ([3]; Week 4): −0.95 (3.08) | Change from Baseline in CDSS Total Score, Median ([3]; Week 4): 0.0 | Change from Baseline in CDSS Total Score, Mean (SD) ([3]; Week 6/Endpoint): −0.89 (3.42) | Change from Baseline in CDSS Total Score, Median ([3]; Week 6/Endpoint): 0.0 | mean change (SD) from Baseline to Endpoint in CDSS score ([3]; risperidone 6 mg, ITT): −0.89 (3.42) | mean weight increase at endpoint ([4]; pooled): 1.7 kg | mean weight change ([4]; pooled (overall summary)): +1.7 kg
